The NIST ThermoML archive (doi:10.1021/acs.jced.7b01004)
Numbers after ± are expanded uncertainties.

Columns and labels:
[1] = refractive index (Na D-line) (dimensionless); xn = mol fraction of the nth substance listed; settings: 293.15 K; 99.6 kPa; Liquid; Standard Abbe refractometry; x1 = 0.5
[2] = xn = mol fraction of the nth substance listed; settings: 99.6 kPa, Liquid, x1 = 0.5; for viscosity: Concentric cylinders viscometry; for mass density: Vibrating tube method

CCCCn1cc[n+](C)c1.CS(=O)(=O)[O-] [1-butyl-3-methylimidazolium methanesulfonate] + NC(N)=O
Settings | refractive index
[1] | 1.493 ± 0.001

[2]
Settings | mass density [kg/m3] | viscosity [mPa·s]
293.15 K | 1202.2 ± 1.2 | 1892.9 ± 93
303.15 K | 1195.6 ± 1.2 | 686.69 ± 25
313.15 K | 1189.2 ± 1.2 | 295.72 ± 7.4
323.15 K | 1182.7 ± 1.2 | 145.85 ± 2.3
333.15 K | 1176.3 ± 1.2 | 80.41 ± 0.74
